According to patent USRE37664E1, “Use of derivatives of N-phenl-3,4,5,6-tetrahydrophthalimide for the desiccation and abscission of plant organs” (BASF Aktiengessellschaft, priority 1989, dated 2002):
Counter-ions that a name gives are not always drawn. Each block holds one compound with its values, some of them ahead of it.

Key:
[1] = test system: cotton plants (Delta Pine variety); test: Defoliation of young cotton plants under greenhouse conditions, Example A; type: in vivo; settings: 12 days after application, day/night 23/16° C., as a percentage of the control
Method: (§1) Young cotton plants (Delta Pine variety, development stage: 5-6 developed foliage leaves) were cultivated under greenhouse conditions (day/night temperature 23/16° C., relative humidity 50-70%) and the foliage was treated, until dripping wet, with aqueous formulations of the stated active ingredients. The converted amount of water was 1,000 l/ha. 12 days after application of the active ingredient, the number of dropped leaves and the degree of defoliation as a percentage of the control were stated. No dropping of leaves occurred in the untreated control plants.

[2] = test system: cotton plants (Delta Pine variety); test: Defoliation of young cotton plants under greenhouse conditions, Example C; type: in vivo; settings: foliar treatment of young cotton plants, 3 days after application, day/night 28/20° C., percentage of the control
Method: as §1, with “stage of development:” for “development stage:”, “green house” for “greenhouse”, “28/20°” for “23/16°”, “[…])” for “50-70%)”, “3” for “12”, “stared.” for “stated.”

[3] = converted application rate 0.125 kg/ha
[4] = converted application rate 0.250 kg/ha

SMILES: COC(=O)C(Br)=Cc1cc(N2C(=O)C3=C(CCCC3)C2=O)ccc1Cl [Compound 1.1]
- % defoliation ([1]; 0.062 kg/ha): 26%
- % defoliation ([1]; 0.125 kg/ha): 61%
- % defoliation ([1]; 0.250 kg/ha): 80%
- % defoliation [2, 3]: 100%
- % defoliation [2, 4]: 98%

SMILES: COC(=O)C(C)=Cc1cc(N2C(=O)C3=C(CCCC3)C2=O)ccc1Cl [Compound 1.26]
- % defoliation ([1]; 0.062 kg/ha): 67%
- % defoliation ([1]; 0.125 kg/ha): 79%
- % defoliation ([1]; 0.250 kg/ha): 89%

SMILES: CC1CSC(c2cc(N3C(=O)C4=C(CCCC4)C3=O)ccc2Cl)S1 (centres unmarked) [Compound 2.5]
- % defoliation ([1]; 0.062 kg/ha): 50%
- % defoliation ([1]; 0.125 kg/ha): 70%
- % defoliation ([1]; 0.250 kg/ha): 97%
- % defoliation [2, 3]: 97%
- % defoliation [2, 4]: 100%

SMILES: O=C(Nc1ccccc1)Nc1cnns1 [Comparative agent I, N-phenyl-N′-(1,2,3-thiadiazol-5-yl)-urea, reference compound]
- % defoliation ([1]; 0.062 kg/ha): 13%
- % defoliation ([1]; 0.125 kg/ha): 31%
- % defoliation ([1]; 0.250 kg/ha): 67%

SMILES: COC(=O)C(C)ON=C(C#N)c1cc(N2C(=O)C3=C(CCCC3)C2=O)ccc1Cl (centres unmarked) [Compound 7.27]
- % defoliation [2, 3]: 100%
- % defoliation [2, 4]: 95%

SMILES: CCOC(=O)C(Cl)=Cc1cc(N2C(=O)C3=C(CCCC3)C2=O)ccc1Cl [Compound 1.17, N-[3-(1′-ethoxycarbonyl-1′-chloroethenyl)-4-chlorophenyl]-3,4,5,6-tetrahydrophthalimide]
- % defoliation ([1]; 0.062 kg/ha): 55%
- % defoliation ([1]; 0.125 kg/ha): 84%
- % defoliation ([1]; 0.250 kg/ha): 89%
- % defoliation [2, 3]: 95%
- % defoliation [2, 4]: 100%

- melting point: 87 to 103 °C
SMILES: Cc1ncccc1C(=O)N(C)C

SMILES: O=C1C2=C(CCCC2)C(=O)N1c1cc(OCC2CCCOC2)c(Cl)cc1F (centres unmarked) [Compound 4.1]
- % defoliation ([1]; 0.062 kg/ha): 83%

SMILES: CC1CCCO1 (centres unmarked)
- % defoliation [2, 3]: 48%
- % defoliation [2, 4]: 53%

SMILES: c1cc[n+]2c(c1)-c1cccc[n+]1CC2 [Comparative agent II, 6,7-dihydropyridol(1,2-α:2′,1′-c)pyridilium as the dibromide monohydrate salt, reference compound]
- % defoliation ([1]; 0.250 kg/ha): 11%
- % defoliation ([1]; 0.500 kg/ha): 27%
